Results: patent publication US20250179078A1, “INHIBITORS OF NLRP3” (PTC THERAPEUTICS, INC., priority 2022, published 2025)

Each compound was assayed against T1, NLRP3 (Homo sapiens, UniProt Q96P20) (assay: IL-1β Secretion Assay (NLRP3-dependent IL1β secretion in THP1 cells)). Conditions: PMA-differentiated THP-1 cells; compounds incubated 20 h; 2.5 μM Nigericin 3 h; HTRF IL-1β readout; read-out: IC50 IL-1β Inhibition.
T1 construct: host or cells: THP-1 cells differentiated with PMA
Format: cell-based
Method in brief: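 IL-1β in conditioned media, measured by HTRF after 3 h 2.5 μM nigericin stimulation, gave % inhibition fitted logistically for IC50. Before that, PMA-differentiated (100 ng/mL, 24 h) THP-1 cells were preincubated 20 h with 7 compound concentrations (3-fold serial, DMSO 1:200).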

T1 sequence (Q96P20 whole entry): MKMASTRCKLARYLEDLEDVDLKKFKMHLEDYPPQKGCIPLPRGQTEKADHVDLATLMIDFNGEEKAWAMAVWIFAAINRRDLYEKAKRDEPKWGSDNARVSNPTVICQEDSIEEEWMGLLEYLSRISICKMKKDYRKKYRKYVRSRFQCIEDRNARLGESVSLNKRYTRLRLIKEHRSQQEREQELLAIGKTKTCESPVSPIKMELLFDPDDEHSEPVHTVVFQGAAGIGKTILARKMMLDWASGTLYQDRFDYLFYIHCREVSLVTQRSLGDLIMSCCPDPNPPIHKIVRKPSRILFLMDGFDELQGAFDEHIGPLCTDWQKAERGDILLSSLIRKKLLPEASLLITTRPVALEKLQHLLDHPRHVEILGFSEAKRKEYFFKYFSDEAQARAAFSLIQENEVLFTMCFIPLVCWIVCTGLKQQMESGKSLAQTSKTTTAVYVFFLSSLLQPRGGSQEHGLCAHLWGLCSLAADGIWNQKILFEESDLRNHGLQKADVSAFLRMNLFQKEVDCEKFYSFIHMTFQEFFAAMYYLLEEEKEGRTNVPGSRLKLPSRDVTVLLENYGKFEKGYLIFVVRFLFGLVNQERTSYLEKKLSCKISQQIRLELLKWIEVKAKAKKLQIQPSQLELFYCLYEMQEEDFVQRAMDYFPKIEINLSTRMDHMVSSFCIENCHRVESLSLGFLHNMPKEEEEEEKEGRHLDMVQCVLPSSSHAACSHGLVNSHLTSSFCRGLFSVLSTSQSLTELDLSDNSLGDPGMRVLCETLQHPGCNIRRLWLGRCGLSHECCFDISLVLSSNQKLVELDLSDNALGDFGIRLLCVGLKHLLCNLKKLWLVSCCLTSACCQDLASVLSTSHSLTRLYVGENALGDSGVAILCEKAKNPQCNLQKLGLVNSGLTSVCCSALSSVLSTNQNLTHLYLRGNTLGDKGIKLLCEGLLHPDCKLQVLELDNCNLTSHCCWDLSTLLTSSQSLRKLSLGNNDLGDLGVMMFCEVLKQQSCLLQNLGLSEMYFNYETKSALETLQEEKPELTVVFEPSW

| IC50 [nM] | SMILES |
| --- | --- |
| 1 to 10 | COc1ccc(-c2nnc(N[C@@H]3C[C@@H](F)CN(C)C3)n3cncc23)c(OC(F)(F)F)c1 [Compound 210, N-[(3R,5R)-5-fluoro-1-methylpiperidin-3-yl]-1-[4-methoxy-2-(trifluoromethoxy)phenyl]imidazo[1,5-d][1,2,4]triazin-4-amine] |
| 10 to 100 | COc1ccc(-c2nnc(Nc3cc[nH]n3)n3cncc23)c(C(F)(F)F)c1 [Compound 228, 1-[4-methoxy-2-(trifluoromethyl)phenyl]-N-(1H-pyrazol-3-yl)imidazo[1,5-d][1,2,4]triazin-4-amine] |
| 10 to 100 | COc1ccc(-c2nnc(N[C@@H]3CCCC[C@H]3O)n3cccc23)c(OC(F)F)c1 [Compound 177, (1R,2R)-2-({1-[2-(difluoromethoxy)-4-methoxyphenyl]pyrrolo[1,2-d][1,2,4]triazin-4-yl}amino)cyclohexan-1-ol] |
| 10 to 100 | COc1ccc(-c2nnc(NC3CCNC3=O)n3cncc23)c(C2CC2)c1 (centres unmarked) [Compound 320, 3-{[1-(2-cyclopropyl-4-methoxyphenyl)imidazo[1,5-d][1,2,4]triazin-4-yl]amino}pyrrolidin-2-one] |
| 1 to 10 | O[C@@H]1CCCC[C@H](Nc2nnc(-c3ccc(C(F)(F)F)cc3CC(F)(F)F)c3cccn23)C1.O[C@H]1CCCC[C@@H](Nc2nnc(-c3ccc(C(F)(F)F)cc3CC(F)(F)F)c3cccn23)C1 [Compound 128, (1S,3R)-3-({1-[2-(2,2,2-trifluoroethyl)-4-(trifluoromethyl)phenyl]pyrrolo[1,2-d][1,2,4]triazin-4-yl}amino)cycloheptan-1-ol AND (1R,3S)-3-({1-[2-(2,2,2-trifluoroethyl)-4-(trifluoromethyl)phenyl]pyrrolo[1,2-d][1,2,4]triazin-4-yl}amino)cycloheptan-1-ol] |
| 10 to 100 | COc1ccc(-c2nnc(NC34CC(CO)(C3)C4)n3cccc23)c(OC(F)(F)F)c1 [Compound 94, [3-({1-[4-methoxy-2-(trifluoromethoxy)phenyl]pyrrolo[1,2-d][1,2,4]triazin-4-yl}amino)bicyclo[1.1.1]pentan-1-yl]methanol] |
| 1 to 10 | Cc1cc2c(-c3ccc(C(F)(F)F)cc3OC(F)F)nnc(NC(C)c3cccc(O)c3)n2n1 (centres unmarked) [Compound 383, 3-[1-({4-[2-(difluoromethoxy)-4-(trifluoromethyl)phenyl]-2-methylpyrazolo[1,5-d][1,2,4]triazin-7-yl}amino)ethyl]phenol] |
| 1 to 10 | COc1ccc(-c2nnc(N[C@H]3C[C@@H](CO)C3)n3cncc23)c(CC(F)(F)F)c1 [Compound 314, [(1s,3s)-3-({1-[4-methoxy-2-(2,2,2-trifluoroethyl)phenyl]imidazo[1,5-d][1,2,4]triazin-4-yl}amino)cyclobutyl]methanol] |
| 10 to 100 | CCN1CC[C@H](O)[C@@H](Nc2nnc(-c3ccc(C(F)(F)F)cc3OC(F)F)c3cccn23)C1 [Compound 46, (3S,4S)-3-({1-[2-(difluoromethoxy)-4-(trifluoromethyl)phenyl]pyrrolo[1,2-d][1,2,4]triazin-4-yl}amino)-1-ethylpiperidin-4-ol] |
| < 1 | Cc1cc2c(-c3ccc(C4CC4)cc3OC(F)F)nnc(N[C@@H]3CCCN(C)C3)n2n1 [Compound 360, 4-[4-cyclopropyl-2-(difluoromethoxy)phenyl]-2-methyl-N-[(3R)-1-methylpiperidin-3-yl]pyrazolo[1,5-d][1,2,4]triazin-7-amine] |
| < 1 | C[C@]1(CO)C[C@@H](Nc2nnc(-c3ccc(C(F)(F)F)cc3CC(F)(F)F)c3cncn23)C1 [Compound 343, [(1s,3s)-1-methyl-3-({1-[2-(2,2,2-trifluoroethyl)-4-(trifluoromethyl)phenyl]imidazo[1,5-d][1,2,4]triazin-4-yl}amino)cyclobutyl]methanol] |
| < 1 | Cc1cc2c(-c3ccc(C4CC4)cc3OC(F)F)nnc(N[C@@H]3CCCN(C)C3)n2c1 [Compound 24, 1-[4-cyclopropyl-2-(difluoromethoxy)phenyl]-7-methyl-N-[(3R)-1-methylpiperidin-3-yl]pyrrolo[1,2-d][1,2,4]triazin-4-amine] |
| 10 to 100 | O=C1NCCC1Nc1nnc(-c2ccc(C(F)(F)F)cc2C(F)(F)F)c2ccnn12 (centres unmarked) [Compound 396, 3-({4-[2,4-bis(trifluoromethyl)phenyl]pyrazolo[1,5-d][1,2,4]triazin-7-yl}amino)pyrrolidin-2-one] |
| 10 to 100 | CC(C)(O)C1CC(Nc2nnc(-c3ccc(C(F)(F)F)cc3OC(F)(F)F)c3cncn23)C1 (centres unmarked) [Compound 325, 2-[3-({1-[2-(trifluoromethoxy)-4-(trifluoromethyl)phenyl]imidazo[1,5-d][1,2,4]triazin-4-yl}amino)cyclobutyl]propan-2-ol] |
| 1 to 10 | Cc1cc2c(-c3ccc(C(F)(F)F)cc3OC(F)(F)F)nnc(N[C@H]3C[C@@](C)(O)C3)n2n1 [Compound 3, (1s,3s)-1-methyl-3-({2-methyl-4-[2-(trifluoromethoxy)-4-(trifluoromethyl)phenyl]pyrazolo[1,5-d][1,2,4]triazin-7-yl}amino)cyclobutan-1-ol] |
| 10 to 100 | CN1CCCC(Nc2nnc(-c3ccc(OC(F)F)cc3OC(F)(F)F)c3cncn23)C1=O (centres unmarked) [Compound 328, 3-({1-[4-(difluoromethoxy)-2-(trifluoromethoxy)phenyl]imidazo[1,5-d][1,2,4]triazin-4-yl}amino)-1-methylpiperidin-2-one] |
| 1 to 10 | C[C@]1(O)C[C@@H](Nc2nnc(-c3ccc(Cl)cc3OC(F)F)c3cncn23)C1 [Compound 194, (1s,3s)-3-({1-[4-chloro-2-(difluoromethoxy)phenyl]imidazo[1,5-d][1,2,4]triazin-4-yl}amino)-1-methylcyclobutan-1-ol] |
